Measured values published in patent US7645764B2, “Kinase inhibitors and methods for using the same” (Roche Palo Alto LLC, priority 2006, dated 2010).

Experiments:
[1] = target: T1, recombinant human b-Raf residues 416-end (wild type) (Homo sapiens, UniProt P15056); experiment: b-Raf wild-type HTRF assay with 6H-MEK as substrate (dose response); format: biochemical; settings: 6H-MEK substrate
T1 construct: recombinant human b-Raf residues 416-end with N-terminal GST-tag; purchased Upstate 14-530M; host or cells: baculovirus in Sf21 insect cells
T1 sequence (P15056 416-766 limits assumed): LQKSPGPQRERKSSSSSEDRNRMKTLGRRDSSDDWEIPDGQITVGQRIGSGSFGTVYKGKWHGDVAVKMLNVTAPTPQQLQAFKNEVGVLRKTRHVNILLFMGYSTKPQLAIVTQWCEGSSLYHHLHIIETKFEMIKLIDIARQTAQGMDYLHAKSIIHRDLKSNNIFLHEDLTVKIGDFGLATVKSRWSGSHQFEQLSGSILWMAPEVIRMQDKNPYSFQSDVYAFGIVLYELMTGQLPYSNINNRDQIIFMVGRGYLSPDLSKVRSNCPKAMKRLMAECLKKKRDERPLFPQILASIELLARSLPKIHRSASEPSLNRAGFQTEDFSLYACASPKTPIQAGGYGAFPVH
Method: b-Raf Wild-Type HTRF Assay with 6H-MEK as Substrate (Dose Response)
This assay utilizes 6H-MEK as the substrate. Upon b-Raf WT phosphorylation, phosphorylated 6H-MEK is detected with rabbit anti-phospho-MEK1/2, Eu-labeled anti-rabbit, and APC-labeled anti-6H antibodies.
(§1) Assay Procedure: • (1) Prepare Kinase Assay Buffer (KAB): 50 mM HEPES (HyClone) pH7, 10 mM MgCl2, 1 mM DTT, 0.1 mM […], and 0.3 mg/ml BSA. • (2) Prepare 6H-MEK (150 nM) in KAB. Add 12 μl/well to the assay plate. • (3) Prepare ATP (66 μM) in KAB. • (4) Dilute compounds to 2.4 mM and any positive controls to 480 μM in DMSO. Perform 10-point 3× dilution in DMSO. […] For the cross talk factor sample, add 6 μl/well of Eu-anti rabbit IgG (9 nM). • (14) Incubate at room temperature for 1.5 hours. • (15) Read HTRF signals at 615 nm and 665 nm on the Envision. […]

[2] = target: T2, recombinant human b-Raf residues 416-end containing a V600E mutation (Homo sapiens, UniProt P15056, V600E); experiment: b-Raf V600E mutant HTRF assay with 6H-MEK as substrate (dose response); format: biochemical; settings: 6H-MEK substrate
T2 construct: recombinant human b-Raf residues 416-end containing a V600E mutation; purchased Upstate 14-5M; host or cells: baculovirus in Sf21 insect cells
T2 sequence (P15056 416-766 V600E): as the sequence (P15056 416-766 limits assumed) above, with V185E counted along it
Method: b-Raf V600E Mutant HTRF Assay with 6H-MEK as Substrate (Dose Response)
This assay utilizes 6H-MEK as the substrate. Upon b-Raf V600E phosphorylation, phosphorylated 6H-MEK is detected with rabbit anti-phospho-MEK1/2, Eu-labeled anti-rabbit, and APC-labeled anti-6H antibodies.
as §1, with “and” for “and any”

cloned human c-Raf = target: T3, cloned human c-Raf (Homo sapiens, UniProt P04049); experiment: c-Raf HTRF assay with 6H-MEK as substrate (dose response); format: biochemical; settings: 6H-MEK substrate
T3 construct: made in house; host or cells: High-5 (Hi5) insect cells, baculovirus, co-infected with FLAG-vSrc
T3 sequence (P04049 whole entry): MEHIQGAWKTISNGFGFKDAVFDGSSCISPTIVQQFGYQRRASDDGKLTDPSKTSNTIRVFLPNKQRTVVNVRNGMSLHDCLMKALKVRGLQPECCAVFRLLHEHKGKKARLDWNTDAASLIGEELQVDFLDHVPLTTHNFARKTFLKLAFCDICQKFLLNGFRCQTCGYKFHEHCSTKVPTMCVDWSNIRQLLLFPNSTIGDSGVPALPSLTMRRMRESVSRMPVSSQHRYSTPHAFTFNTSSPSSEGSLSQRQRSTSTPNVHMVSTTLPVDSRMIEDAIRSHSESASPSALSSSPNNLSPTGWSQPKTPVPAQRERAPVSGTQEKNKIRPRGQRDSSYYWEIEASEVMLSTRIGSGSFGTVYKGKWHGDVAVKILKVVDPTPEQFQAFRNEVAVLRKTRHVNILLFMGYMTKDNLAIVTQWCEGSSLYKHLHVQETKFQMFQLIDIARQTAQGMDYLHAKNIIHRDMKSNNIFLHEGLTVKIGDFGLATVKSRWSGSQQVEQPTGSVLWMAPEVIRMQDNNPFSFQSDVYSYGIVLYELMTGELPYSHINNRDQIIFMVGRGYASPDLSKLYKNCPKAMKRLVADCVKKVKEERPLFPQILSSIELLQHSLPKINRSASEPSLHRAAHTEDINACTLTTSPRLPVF
Method: c-Raf HTRF Assay with 6H-MEK as Substrate (Dose Response)
This assay utilizes 6H-MEK as the substrate. Upon c-Raf phosphorylation, phosphorylated 6H-MEK is detected with rabbit anti-phospho-MEK1/2, Eu-labeled anti-rabbit, and APC-labeled anti-6H antibodies.
as §1, with “Procedure” for “Assay Procedure:”
N terminal EE-tagged c-Raf was expressed in High-5 cells. […] Protein concentration was determined by the BioRad DC method.

p38 MAP kinase = target: T4, p38 MAP kinase (Homo sapiens, UniProt Q16539); experiment: p38 MAP kinase in vitro assay (33P-ATP phosphate transfer to Myelin Basic Protein); format: biochemical
T4 construct: made in house; host or cells: E. coli (co-expressed with SEK-1 and MEKK)
T4 sequence (Q16539 whole entry): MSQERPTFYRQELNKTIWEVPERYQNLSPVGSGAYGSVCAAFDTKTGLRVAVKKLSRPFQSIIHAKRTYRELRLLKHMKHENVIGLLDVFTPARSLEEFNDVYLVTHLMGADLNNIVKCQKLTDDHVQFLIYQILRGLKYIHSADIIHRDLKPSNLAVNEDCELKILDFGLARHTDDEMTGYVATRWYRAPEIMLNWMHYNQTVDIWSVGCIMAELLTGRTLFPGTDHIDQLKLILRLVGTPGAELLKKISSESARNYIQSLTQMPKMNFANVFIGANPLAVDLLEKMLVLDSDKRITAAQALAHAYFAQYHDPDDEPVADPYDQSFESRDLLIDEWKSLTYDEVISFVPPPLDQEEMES
Method: This example illustrates a p38 (MAP) kinase in vitro assay useful for evaluating the compounds of the invention.
The p38 MAP kinase inhibitory activity of compounds of this invention in vitro was determined by measuring the transfer of the γ-phosphate from γ-^33P-ATP by p-38 kinase to Myelin Basic Protein (MBP), using a minor modification of the method described in Ahn, et al., J. Biol. Chem. 266:4220-4227 (1991).
The phosphorylated form of the recombinant p38 MAP kinase was co-expressed with SEK-1 and MEKK in E. Coli (see, Khokhlatchev, et al., J. Biol. Chem. 272:11057-11062 (1997)) and then purified by affinity chromatography using a Nickel column.
The phosphorylated p38 MAP kinase was diluted in kinase buffer (20 mM 3-(N-morpholino)propanesulfonic acid, pH 7.2, 25 mM β-glycerol phosphate, 5 mM ethylene glycol-bis(beta-aminoethyl ether)-N,N,N′,N′-tetraacetic acid, 1 mM sodium ortho-vanadate, 1 mM dithiothreitol, 40 mM magnesium chloride). Test compound dissolved in DMSO or only DMSO (control) was added and the samples were incubated for 10 min at 30° C. The kinase reaction was initiated by the addition of a substrate cocktail containing MBP and γ-^33P-ATP. […] The phosphorylated MBP was then separated from the residual γ-^33P-ATP using a phosphocellulose membrane (Millipore, Bedfrod, Mass.) and quantitated using a scintillation counter (Packard, Meriden, Conn.).

For `CNC(=O)c1ccc(C)c(-c2cc3cnc(NC4CCOCC4)nc3n(C)c2=O)c1` [Compound 8, 4,N-Dimethyl-3-[8-methyl-7-oxo-2-(tetrahydro-pyran-4-ylamino)-7,8-dihydro-pyrido[2,3-d]pyrimidin-6-yl]-benzamide], the IC50 [1] was ~20 nM and the IC50 [2] was ~10 nM.
`Cc1nnc(-c2ccc(C)c(-c3cc4cnc(NC5CCOCC5)nc4n(C)c3=O)c2)o1` [Compound 4, 8-Methyl-6-[2-methyl-5-(5-methyl-[1,3,4]oxadiazol-2-yl)-phenyl]-2-(tetrahydro-pyran-4-ylamino)-8H-pyrido[2,3-d]pyrimidin-7-one] showed an IC50 (cloned human c-Raf) of ~190 nM.
`Cc1ccc(-c2nnc[nH]2)cc1-c1cc2cnc(NC3CCOCC3)nc2n(C)c1=O` [Compound 11, 8-Methyl-6-[2-methyl-5-(4H-[1,2,4]triazol-3-yl)-phenyl]-2-(tetrahydro-pyran-4-ylamino)-8H-pyrido[2,3-d]pyrimidin-7-one] showed a melting point of 214.9 to 216 °C.
Molecule `Cc1ccc(C#N)cc1-c1cc2cnc(NC3CCOCC3)nc2n(C)c1=O` [Compound 12, 4-Methyl-3-[8-methyl-7-oxo-2-(tetrahydro-pyran-4-ylamino)-7,8-dihydro-pyrido[2,3-d]pyrimidin-6-yl]-benzonitrile] has a melting point of 253.5 to 254.1 °C.
For `Cc1ccc(-c2ncc[nH]2)cc1-c1cc2cnc(NC3CCOCC3)nc2n(C)c1=O` [Compound 13, 6-[5-(1H-Imidazol-2-yl)-2-methyl-phenyl]-8-methyl-2-(tetrahydro-pyran-4-ylamino)-8H-pyrido[2,3-d]pyrimidin-7-one], the IC50 (p38 MAP kinase) was ~0.66 nM.
Molecule `COC(=O)c1ccc(C)c(-c2cc3cnc(NC4CCOCC4)nc3n(C)c2=O)c1` [Compound 1, 4-Methyl-3-[8-methyl-7-oxo-2-(tetrahydro-pyran-4-ylamino)-7,8-dihydro-pyrido[2,3-d]pyrimidin-6-yl]-benzoic acid methyl ester] has a melting point of 122.5 to 126.5 °C.
